From publication PMC8568133, “Evaluation of bisphenylthiazoles as a promising class for combating multidrug-resistant fungal infections” (PLoS ONE, 2021)
Values after ≈ are worked out from the molar mass of the structure shown. Where two headings read alike, the source gives them in different places.

Columns and labels:
Candida albicans = test: Antifungal broth microdilution MIC (50% growth inhibition) and MFC; type: cell-based; conditions: Candida albicans; for MIC: read-out: MIC
Protocol: (§1) Serial dilutions (from 128 μg/mL to 0.06 μg/mL) of the tested compounds and control drugs (fluconazole, itraconazole and amphotericin) (in triplicates), were screened against clinical isolates of Candida albicans, Candida auris, Candida glabrata, Candida parapsilosis, Candida tropicalis, Candida krusei, Cryptococcus neoformans, Cryptococcus gattii and Aspergillus fumigatus species using the broth microdilution method according to the Clinical and Laboratory Standards Institute guidelines. MICs were determined as the lowest concentration of the compounds that inhibited the fungal growth by 50% after incubation at 35 °C for 24 h (for Candida and Aspergillus), or 48 h (for Cryptococcus). The minimum fungicidal concentration (MFC) of these compounds was tested by plating 4 μL from wells with no growth onto YPD agar plates. The plates were incubated at 37 °C for 24 hours before recording the MFC, which was categorized as the lowest concentration that reduced fungal growth by 99.9% [45]. The experiment was repeated three independent times.

Candida auris [1] = test: as above; type: cell-based
Protocol: as §1

Candida krusei = test: as above; type: cell-based; conditions: Pichia kudriavzevii; for MIC: read-out: MIC
Protocol: as §1

Candida tropicalis = test: as above; type: cell-based; conditions: Candida tropicalis, ATCC1369, C. tropicalis ATCC 1369; for MIC: read-out: MIC
Protocol: as §1

[2] = tested on: Lactobacillus casei ATCC-334; test: Broth microdilution MIC against normal human microbiota; type: cell-based; conditions: Lacticaseibacillus casei, ATCC334
Protocol: (§2) Broth microdilution was utilized to determine the activity of bisphenylthiazoles against the human gut microflora as described elsewhere. A bacterial solution equivalent to 0.5 McFarland standards was prepared and diluted in MRS broth to achieve a bacterial concentration of approximately 5 x 10^5 CFU/mL. Then, compounds/control antifungals (in triplicates), were added to the plates and serially diluted with media containing bacteria. The plates were incubated for 48 hours at 37 °C before recording the MIC values. The experiment was repeated three independent times.

[3] = tested on: Lactobacillus crispatus HM-370; test: as above; type: cell-based; conditions: HM370
Protocol: as §2

[4] = tested on: Lactobacillus gasseri HM-400; test: as above; type: cell-based; conditions: HM400
Protocol: as §2

Cryptococcus gattii = test: Antifungal broth microdilution MIC (50% growth inhibition, 48 h); type: cell-based; conditions: Cryptococcus gattii, read-out: MIC
Protocol: as §1

Cryptococcus neoformans = test: as above; type: cell-based; conditions: Cryptococcus neoformans, read-out: MIC
Protocol: as §1

Candida parapsilosis = test: Antifungal broth microdilution MIC (50% growth inhibition); type: cell-based; conditions: Lodderomyces parapsilosis, read-out: MIC
Protocol: as §1

Candida strains = test: Minimum fungicidal concentration, summary over Candida strains; type: cell-based; conditions: strains of Table 6
Protocol: as §1

Candida auris [5] = test: Checkerboard assay of compound 17 with standard antifungals; type: cell-based; conditions: for Interpretation of interaction: antifungal combined with compound 17; for MIC Combined, Antifungal: antifungal in combination with compound 17; for MIC: Candidozyma auris, checkerboard, agent alone
Protocol: To evaluate the interactions between bisphenylthiazoles and the standard antifungal agents (fluconazole, amphotericin B, 5-fluorocytosine and caspofungin) against 2 C. auris clinical isolates, a standard checkerboard assay was utilized as described in previous studies. The fractional inhibitory concentration index (FICI) was calculated for each interaction. Interactions where the FICI was ≤0.5 were categorized as synergistic (SYN). FICI values of >0.5–1.25 were categorized as additive (ADD). FICI values of >1.25–4 were categorized as indifferent, and FICI values of > 4 were categorized as antagonistic. The experiment was repeated three independent times.

MRSA USA300 = tested on: MRSA USA300; design: method as in PMID 30247876; conditions: previous observations; cited from earlier work
[6] = design: method as in PMID 30247876; conditions: reactive metabolite formation, previous observations; cited from earlier work
[7] = ATCC10231, C. albicans ATCC 10231
[8] = C. albicans NR-29448 (fluconazole-resistant)
[9] = Candidozyma auris, C. auris 381, read-out: MIC
[10] = Candidozyma auris, C. auris 382, read-out: MIC
[11] = Candidozyma auris, C. auris 387, read-out: MIC
[12] = Candidozyma auris, Candida auris 389, read-out: MFC
[13] = ATCC34135, C. krusei ATCC 34135
[14] = ATCC22019, C. parapsilosis ATCC 22019
[15] = Candida auris 381 (azole-sensitive)
[16] = Candida auris 385 (azole-resistant)

C[C@@H]1[C@H](O)[C@@H](C)/C=C/C=C/C=C/C=C/C=C/C=C/C=C/[C@H](O[C@@H]2O[C@H](C)[C@@H](O)[C@H](N)[C@@H]2O)C[C@@H]2O[C@](O)(C[C@@H](O)C[C@@H](O)[C@H](O)CC[C@@H](O)C[C@@H](O)CC(=O)O[C@H]1C)C[C@H](O)[C@H]2C(=O)O [Amphotericin B, reference compound]
MFC (Candida albicans; [7]): 1 µg/mL (≈ 1.08 µM)
MIC (Candida albicans; [7]): 1 µg/mL (≈ 1.08 µM)
MIC (Candida albicans; [8]): 1 µg/mL (≈ 1.08 µM)
MIC (Candida albicans; C. albicans SS5314 (wild-type)): 1 µg/mL (≈ 1.08 µM)
MFC (Candida albicans; C. albicans NR-29448): 2 µg/mL (≈ 2.16 µM)
MFC (Candida auris [1]; Candida auris 390): 2 µg/mL (≈ 2.16 µM)
MIC (Candida auris [1]; [9]): 1 µg/mL (≈ 1.08 µM)
MIC (Candida auris [1]; [10]): 1 µg/mL (≈ 1.08 µM)
MIC (Candida auris [1]; Candidozyma auris, C. auris 383, read-out: MIC): 1 µg/mL (≈ 1.08 µM)
MIC (Candida auris [1]; Candidozyma auris, C. auris 384, read-out: MIC): 1 µg/mL (≈ 1.08 µM)
MIC (Candida auris [1]; Candidozyma auris, C. auris 385, read-out: MIC): 1 µg/mL (≈ 1.08 µM)
MIC (Candida auris [1]; Candidozyma auris, C. auris 386, read-out: MIC): 2 µg/mL (≈ 2.16 µM)
MIC (Candida auris [1]; [11]): 1 µg/mL (≈ 1.08 µM)
MIC (Candida auris [1]; Candidozyma auris, C. auris 388, read-out: MIC): 2 µg/mL (≈ 2.16 µM)
MIC (Candida auris [1]; Candidozyma auris, C. auris 389, read-out: MIC): 2 µg/mL (≈ 2.16 µM)
MIC (Candida auris [1]; Candidozyma auris, C. auris 390, read-out: MIC): 2 µg/mL (≈ 2.16 µM)
MFC (Candida auris [1]; [12]): 2 µg/mL (≈ 2.16 µM)
MIC (Candida krusei; [13]): 2 µg/mL (≈ 2.16 µM)
MFC (Candida krusei; C. krusei CAB 396420): 2 µg/mL (≈ 2.16 µM)
MIC (Candida krusei; C. krusei CAB 396420): 2 µg/mL (≈ 2.16 µM)
MFC (Candida tropicalis): 2 µg/mL (≈ 2.16 µM)
MIC (Candida tropicalis): 1 µg/mL (≈ 1.08 µM)
MIC ([2]; Lactobacillus casei ATCC-334, read-out: MIC): > 128 µg/mL
MIC ([3]; Lactobacillus crispatus HM-370, read-out: MIC): > 128 µg/mL
MIC ([4]; Lactobacillus gasseri HM-400, read-out: MIC): > 128 µg/mL
MIC (Cryptococcus gattii; C. gattii NR 43209): 1 µg/mL (≈ 1.08 µM)
MIC (Cryptococcus gattii; C. gattii NR 43210): 0.5 µg/mL (≈ 0.541 µM)
MIC (Cryptococcus neoformans; C. neoformans NR 41298): 1 µg/mL (≈ 1.08 µM)
MIC (Cryptococcus neoformans; C. neoformans NR 41300): 1 µg/mL (≈ 1.08 µM)
MIC (Cryptococcus neoformans; C. neoformans NR 48770): 0.5 µg/mL (≈ 0.541 µM)
MIC (Candida parapsilosis; [14]): 0.5 µg/mL (≈ 0.541 µM)
MIC (Candida parapsilosis; C. parapsilosis CAB 502638): 0.5 µg/mL (≈ 0.541 µM)
fungistatic or fungicidal activity (Candida strains): fungicidal
Interpretation of interaction (Candida auris [5]; [15]): ADD (FICI values of >0.5–1.25 were categorized as additive (ADD))
MIC Combined, Antifungal (Candida auris [5]; [15]): 1 µg/mL
Interpretation of interaction (Candida auris [5]; [16]): ADD (FICI values of >0.5–1.25 were categorized as additive (ADD))
MIC Combined, Antifungal (Candida auris [5]; [16]): 1 µg/mL
MIC (Candida auris [5]; [15]): 1 µg/mL
MIC (Candida auris [5]; [16]): 1 µg/mL

Cc1nc(-c2ccc(-c3ccccc3)cc2)sc1-c1nnc(NN)o1 [Compound 1]
MIC (MRSA) (MRSA USA300): 3 µg/mL (≈ 8.59 µM)
GSH trap [6]: +ve

OC(Cn1cncn1)(Cn1cncn1)c1ccc(F)cc1F [Fluconazole, reference compound]
MFC (Candida albicans; [7]): > 128 µg/mL
MIC (Candida albicans; [7]): 1 µg/mL (≈ 3.27 µM)
MIC (Candida albicans; [8]): > 128 µg/mL
MIC (Candida albicans; C. albicans SS5314 (wild-type)): 1 µg/mL (≈ 3.27 µM)
MFC (Candida albicans; C. albicans NR-29448): > 128 µg/mL
MIC (Candida auris [1]; C. auris 383): >128 µg/mL
MIC (Candida auris [1]; C. auris 384): >128 µg/mL
MIC (Candida auris [1]; C. auris 385): >128 µg/mL
MIC (Candida auris [1]; C. auris 386): >128 µg/mL
MIC (Candida auris [1]; C. auris 389): >128 µg/mL
MIC (Candida auris [1]; C. auris 390): >128 µg/mL
MFC (Candida auris [1]; Candida auris 390): >128 µg/mL
MIC (Candida auris [1]; [9]): 1 µg/mL (≈ 3.27 µM)
MIC (Candida auris [1]; [10]): 8 µg/mL (≈ 26.1 µM)
MIC (Candida auris [1]; [11]): 8 µg/mL (≈ 26.1 µM)
MFC (Candida auris [1]; [12]): > 128 µg/mL
MIC (Candida krusei; [13]): 16 µg/mL (≈ 52.2 µM)
MFC (Candida krusei; C. krusei CAB 396420): > 128 µg/mL
MIC (Candida krusei; C. krusei CAB 396420): 16 µg/mL (≈ 52.2 µM)
MFC (Candida tropicalis): > 128 µg/mL
MIC (Candida tropicalis): 0.5 µg/mL (≈ 1.63 µM)
MIC [2]: > 128 µg/mL
MIC ([3]; Lactobacillus crispatus): > 128 µg/mL
MIC ([4]; Lactobacillus gasseri): > 128 µg/mL
MIC (Cryptococcus gattii; C. gattii NR 43209): 4 µg/mL (≈ 13.1 µM)
MIC (Cryptococcus gattii; C. gattii NR 43210): 4 µg/mL (≈ 13.1 µM)
MIC (Cryptococcus neoformans; C. neoformans NR 41298): 2 µg/mL (≈ 6.53 µM)
MIC (Cryptococcus neoformans; C. neoformans NR 41300): 1 µg/mL (≈ 3.27 µM)
MIC (Cryptococcus neoformans; C. neoformans NR 48770): 2 µg/mL (≈ 6.53 µM)
MIC (Candida parapsilosis; [14]): 1 µg/mL (≈ 3.27 µM)
MIC (Candida parapsilosis; C. parapsilosis CAB 502638): 0.5 µg/mL (≈ 1.63 µM)
fungistatic or fungicidal activity (Candida strains): fungistatic
Interpretation of interaction (Candida auris [5]; [15]): ADD (FICI values of >0.5–1.25 were categorized as additive (ADD))
MIC Combined, Antifungal (Candida auris [5]; [15]): 1 µg/mL
Interpretation of interaction (Candida auris [5]; [16]): ADD (FICI values of >0.5–1.25 were categorized as additive (ADD))
MIC Combined, Antifungal (Candida auris [5]; [16]): 0.25 µg/mL
MIC (Candida auris [5]; [15]): 1 µg/mL
MIC (Candida auris [5]; [16]): > 128 µg/mL
